Data from publication PMC8747035, “Design, Synthesis, and Biological Evaluation of 5,6,7,8-Tetrahydrobenzo[4,5]thieno[2,3-d]pyrimidines as Microtubule Targeting Agents” (Molecules, 2022).

Legend:
[1] = test system: HOP-92; assay: NCI-60 growth inhibition, HOP-92; assay type: cell-based; conditions: Homo sapiens, NSCLC
Excerpt: (§1) Compound 4 had better potency than the lead compound 1 in 50 cancer cell lines. (better by 5 to 6-fold in leukemia, 2 to 17-fold in NSCLC, 2 to 6-fold in colon cancer, 2 to 5-fold in CNS cancer, 2 to 25-fold in melanoma, 2 to 5-fold in ovarian cancer, 2 to 9-fold in renal cancer, 2 to 5-fold in prostate cancer, and 2 to 6-fold in breast cancer compared to lead compound 1).

[2] = test system: KM12; assay: NCI-60 growth inhibition, KM12; assay type: cell-based; conditions: Homo sapiens, Colon Cancer
Excerpt: as §1

[3] = test system: TK-10; assay: NCI-60 growth inhibition, TK-10; assay type: cell-based; conditions: Homo sapiens, Renal Cancer
Excerpt: as §1

[4] = test system: U251; assay: NCI-60 growth inhibition, U251; assay type: cell-based; conditions: Homo sapiens, U-251, CNS Cancer
Excerpt: as §1

[5] = test system: A-10 cells; assay: Cellular microtubule depolymerization in A-10 cells (immunofluorescence); assay type: cell-based; conditions: Rattus norvegicus, A10; 18 h, loss of 50% of interphase microtubules
Method: We investigated the microtubule depolymerization and the antiproliferative activities of compounds 4–14 (Table 2). […] We next evaluated the importance of the 4′-OMe group of compound 4 by replacing it with an isosteric 4′-SMe (5). […] Clearly, this further substantiated the importance of an S in the scaffold over an NH.
The effects of the compounds on cellular microtubules were evaluated in A-10 cells using indirect immunofluorescence microscopy. These cells were obtained from the American Type Culture Collection (ATCC) (Manassas, VA, USA). Cells were treated with the compounds of interest for 18 h, and the cells fixed with cold MeOH and microtubule structures were visualized using a β-tubulin antibody (Sigma-Aldrich, St. Louis, MO, USA). The concentration that caused loss of 50% of the interphase microtubules was defined as the EC50 and calculated as previously described. These values represent an average of at least three independent experiments.

[6] = test system: NCI-H226; assay: NCI-60 growth inhibition, NCI-H226; assay type: cell-based; conditions: Homo sapiens, NSCLC
Excerpt: as §1

[7] = test system: COLO 205; assay: NCI-60 growth inhibition, COLO 205; assay type: cell-based; conditions: Homo sapiens, Colon Cancer
Excerpt: as §1

[8] = test system: NCI-H23; assay: NCI-60 growth inhibition, NCI-H23; assay type: cell-based; conditions: Homo sapiens, NSCLC
Excerpt: as §1

[9] = test system: NCI-60 cancer cell line panel; assay: NCI-60 cancer cell line panel (overall); assay type: cell-based; conditions: Homo sapiens; 40 most sensitive of the 60 cancer cell lines
Excerpt: as §1

[10] = test system: MDA-MB-435 tumors; assay: MDA-MB-435 xenograft model; assay type: in vivo, nude mice; conditions: 75 mg/kg i.p. 3 × a week
Method: Compound 4 was selected for further evaluation in an in vivo xenograft mouse study in light of its nanomolar potency in vitro in the NCI-60 cancer cell line panel and its potent microtubule depolymerization activity. The in vivo effects of 4 were tested in the MDA-MB-435 xenograft model (Figure 5).
MDA-MB-435 tumor fragments were implanted s.c. into the flanks of female nude mice. […] Compound 4 was dissolved in a 50:50 Cremophor EL/DMSO mixture and further dissolved in PBS for a final concentration of 10:10:80 Cremophor EL:DMSO:PBS (v/v). […] Tumor volumes and mouse weights were measured 2–3 times a week. A two-way ANOVA with Dunnett’s post-hoc tests including all treatment groups in the trial was used to determine significant differences in tumor volumes between drug-treated and untreated control groups on each measurement day. These animal studies were performed at the University of Texas Health Science Center in San Antonio in compliance with an approved Institutional Animal Care and Use protocol.
MDA-MB-435 tumors were implanted into the flanks of nude mice and allowed to grow until they reached a volume of ~200 mm^3. […] Tumor volumes and mouse weights were measured 2–3 times a week. Statistical significance was evaluated by two-way ANOVA (time vs. drug) with Dunnett’s post-hoc tests. A statistically significant difference in tumor volume was detected on day 14 between mice treated with 4 (* p = 0.0384) and untreated control tumors.

[11] = test system: MCF7; assay: NCI-60 growth inhibition, MCF7; assay type: cell-based; conditions: Homo sapiens, Breast Cancer
Excerpt: as §1

[12] = test system: HS 578T; assay: NCI-60 growth inhibition, HS 578T; assay type: cell-based; conditions: Homo sapiens, Breast Cancer
Excerpt: as §1

[13] = test system: SK-MEL-5; assay: NCI-60 growth inhibition, SK-MEL-5; assay type: cell-based; conditions: Homo sapiens, Melanoma
Excerpt: as §1

[14] = test system: PC-3; assay: NCI-60 growth inhibition, PC-3; assay type: cell-based; conditions: Homo sapiens, Prostate Cancer
Excerpt: as §1

**Q.** What does the source list for `COc1ccc(N(C)c2nc(N)nc3sc4c(c23)CCCC4)cc1` [Compound 4, N4-(4-methoxyphenyl)-N4-methyl-5,6,7,8-tetrahydrobenzo[4,5]thieno[2,3-d]pyrimidine-2,4-diamine]?
**A.** GI50 [1]: 14.1 nM; GI50 [2]: 13.4 nM; GI50 [3]: 14.2 nM; GI50 [4]: 9.6 nM; EC50 [5]: 19 nM; GI50 [6]: 17.5 nM; GI50 [7]: 10.8 nM; GI50 [8]: 11.3 nM; GI50 [9]: ~10 nM; Antitumor effects on MDA-MB-435 tumor volume vs control ([10]; day 14): statistically significant antitumor effects; Weight loss ([10]; nude mice): moderate weight loss; GI50 [11]: 8.01 nM; GI50 [12]: 13.5 nM; GI50 [13]: 10.8 nM; GI50 [14]: 7.67 nM
